US11655297B2, “ILDR2 antagonists and combinations thereof” (Bayer Aktiengesellschaft, priority 2017, dated 2023)

Columns and labels:
[1] = test system: IL-2 secretion of CD4 T cells co-cultured with M-CSF mature monocytes; assay: Mixed lymphocyte reaction (MLR), antibody-evoked IL-2 secretion by Elisa; format: cell-based
Procedure: To determine the effect of these antibodies on ILDR2 function an immunomodulation assay was carried out, namely a mixed lymphocyte reaction assay. The mixed lymphocyte reaction (MLR) is a test in which populations of lymphocytes are mixed together, and the resulting reactions are measured. Technically, it is an ex-vivo cellular immune assay that occurs between two allogeneic lymphocyte populations. In a one-way MLR, only one lymphocyte population can respond or proliferate. In a two-way MLR, both populations can proliferate. MLR's are performed to assess how T cells react to external stimuli, e.g., exposure to immune checkpoint inhibitors, like anti PD-1 antibodies (Wang et al 2014) and anti-PD-L1 antibodies. In the present context, antibody-evoked IL-2 secretion was measured with this assay.
In the present case, CD4 T cells from one donor were co-cultured with M-CSF mature monocytes from another donor in the presence of various ILDR2 antibodies, a function-blocking PD-L1 antibody or an isotype control for 5 days. […] Results are shown in FIG. 9B and the following table 3.

B16F10 tumor model = assay: B16-F10 preventive treatment, syngeneic tumor model; format: in vivo, mouse; settings: for Mean tumor size: 10 mg/kg i.p. q3d×6 from tumor inoculation
Text: (§1) The following syngeneic tumor models were subcutaneously used in in vivo experiments: B16-F10 cells represent a mouse melanoma cell line derived from the skin of C57BL/6J mice. CT26 is an N-nitroso-N-methylurethane-(NNMU) induced, undifferentiated colon carcinoma cell line. It is a fibroblast cell type and derives from BALB/c mice. 3C9-D11-H11 cells are hybridoma B lymphocytes generated by fusion of spleen cells with Sp2/0-Ag14 myeloma cells. The spleen cells derive from BALB/c mice that were immunized with purified porcine parvovirus (PPV).

B16-F10 tumor model = assay: B16-F10 therapeutic treatment, combination with aPD-L1; format: in vivo, mouse
Text: as §1

CT26 tumor model = assay: CT26 therapeutic, combination with aPD-L1; format: in vivo, mouse; settings: aPD-L1 10 mg/kg
Text: as §1

3C9-D11-H11 tumor model = assay: 3C9-D11-H11 therapeutic, combination with aPD-L1; format: in vivo, mouse
Text: as §1

B16F10 OVA tumor model = assay: B16F10 OVA model, combination with OVA vaccine and CpG oligo; format: in vivo, mouse; settings: for Mean tumor size: BAY 1905254 10 mg/kg i.p. q3d×3 starting day 8, 50 μg OVA + 10 μg CPG s.c. on day 9
Procedure: 50 μg OVA (in 50 μl)+10 μg CPG (in 10 μl)+140 μl PBS=200 μl/mouse was applied subcutaneously to the left flank adjacent to the tumor, on day 9. The CpG oligonucleotide was ODN 1826 (5′-[…]-3′; bases are phosphorothioate/nuclease resistant) that is specific for mouse TLR9 was used (Invivogen MA-1826-5).

CT26 C4.4a tumor model = assay: CT26 C4.4a model, combination with C4.4A ADC; format: in vivo, mouse; settings: for Mean tumor size: BAY 1905254 10 mg/kg i.p. q3d×5, C4.4A ADC 10 mg/kg i.v. q4d×3, starting day 6
Procedure: This model is a derivative of the parental CT26 model expressing murine C4.4a on the surface of the tumor cells.
C4.4A ADC (antibody-drug conjugate BAY1129980), which is composed of an antibody against a structural homolog of the urokinase-type plasminogen activator receptor (uPAR) and tumor-associated antigen, C4.4a, and conjugated with a cytotoxic agent, was dosed 10 mg/kg i.v. q4d×3, starting day 6.

[2] = test system: B16F10 syngeneic mouse model; assay: Tumor shrinking activity in B16F10 syngeneic mouse model (FIG. 9A); format: in vivo
Procedure: Tumor shrinking activity is measured as decrease of tumor volume, relative to an isotype control.
To determine the anti-tumor efficacy, such as for example, the tumor shrinking effect of the respective binders, two syngeneic mouse models (B16F10, CT26) were used as discussed above.

[3] = test system: CT26 syngeneic mouse model; assay: Tumor shrinking activity in CT26 syngeneic mouse model (FIG. 9C)
Procedure: FIG. 9C: Tumor shrinking activity of selected anti ILDR2 antibodies according to the present invention in a CT26 syngeneic mouse model. Tumor shrinking activity is measured as decrease of tumor volume, relative to an Isotype control.

B16-F10 OVA tumor model = assay: B16-F10 OVA model, combination with Docetaxel; settings: for Mean tumor size: BAY 1905254 10 mg/kg i.p. q3d×3 starting day 8, Docetaxel once 20 mg/kg i.v. on day 8
Procedure: Eight weeks old female C57B1/6N Cr1 BR mice (body weight 18-20 g) from Charles River Deutschland, Sulzfeld were used for the B16-F10 OVA tumor model. The model is a derivative of the B16F10 cell line expressing the allo-antigen ovalbumin which can be recognized by antigen-specific T cells. The experiment was initiated after an acclimatization period of 5 days. Animals were kept in a 12-hour light/dark cycle. Food and water was available ad libitum. Housing temperature was maintained at 21° C. Mice (n=12 per group) were s.c. inoculated with 1×10^4 B16F10 OVA tumor cells into the left flank and assigned to experimental groups. At treatment initiation, animals were marked and each cage was labeled with the cage number, study number and the number of animals per cage.
Agents were dosed i.p. at 10 mg/kg q3d×3, starting day 8.

BAY1905254: anti ILDR2 antibody, heavy chain SEQ ID NO:42, light chain SEQ ID NO:43
IL2 concentration (% over isotype control) ([1]; MLR, 5 days, supernatant Elisa): 91 +/− 11% | IL-2 secretion / cytokine induction in MLR (in words) ([1]; vs isotype control or anti PD-L1 antibody): do not mediate IL-2 induction | tumor size of the treatment group vs. isotype control (T/C) (B16F10 tumor model; B16-F10 preventive, 10 mg/kg i.p. q3d×6): 0.63 | tumor growth vs. isotype control (in words) (B16F10 tumor model; B16F10, 10 mg/kg i.p., start of treatment d0, 2 way ANOVA): significantly delayed | Mean tumor size (B16F10 tumor model; day 3 post inoculation): 34.5 mm3 | Mean tumor size (B16F10 tumor model; day 6 post inoculation): 77.3 mm3 | Mean tumor size (B16F10 tumor model; day 8 post inoculation): 90.1 mm3 | Mean tumor size (B16F10 tumor model; day 11 post inoculation): 286.8 mm3 | Mean tumor size (B16F10 tumor model; day 13 post inoculation): 389.2 mm3 | Mean tumor size (B16F10 tumor model; day 15 post inoculation): 1059.9 mm3 | Mean tumor size (B16F10 tumor model; day 17 post inoculation): 1204 mm3 | tumor growth vs. isotype control (in words) (B16-F10 tumor model; B16-F10 therapeutic, 10 mg/kg q3d i.p., 2 way ANOVA): No monotherapy efficacy | tumor size of the treatment group vs. isotype control (T/C) (B16-F10 tumor model; B16-F10 therapeutic, 10 mg/kg i.p. q3d×5 starting d3): 1.08 | Mean tumor size (B16-F10 tumor model; day 6 post inoculation, 10 mg/kg i.p. q3d×5 starting d3): 76.07 mm3 | Mean tumor size (B16-F10 tumor model; day 8 post inoculation, 10 mg/kg i.p. q3d×5 starting d3): 80.52 mm3 | Mean tumor size (B16-F10 tumor model; day 10 post inoculation, 10 mg/kg i.p. q3d×5 starting d3): 158.01 mm3 | Mean tumor size (B16-F10 tumor model; day 13 post inoculation, 10 mg/kg i.p. q3d×5 starting d3): 479.92 mm3 | Mean tumor size (B16-F10 tumor model; day 15 post inoculation, 10 mg/kg i.p. q3d×5 starting d3): 986.99 mm3 | tumor size of the treatment group vs. isotype control (T/C) (CT26 tumor model; CT26, BAY1905254 3 mg/kg i.p. q3d×3 starting d7): 0.95 | tumor growth vs. isotype control (in words) (CT26 tumor model; CT26, BAY1905254 3 mg/kg q3d i.p. from d7, 2 way ANOVA): no delay of tumor growth | Mean tumor size (CT26 tumor model; day 7 post inoculation, BAY1905254 3 mg/kg i.p. q3d×3 starting d7): 136.38 mm3 | Mean tumor size (CT26 tumor model; day 10 post inoculation, BAY1905254 3 mg/kg i.p. q3d×3 starting d7): 227.41 mm3 | Mean tumor size (CT26 tumor model; day 13 post inoculation, BAY1905254 3 mg/kg i.p. q3d×3 starting d7): 367.22 mm3 | Mean tumor size (CT26 tumor model; day 15 post inoculation, BAY1905254 3 mg/kg i.p. q3d×3 starting d7): 576.28 mm3 | tumor size of the treatment group vs. isotype control (T/C) (3C9-D11-H11 tumor model; 3C9-D11-H11, 10 mg/kg i.p. q3d×5 starting d8): 0.87 | tumor growth vs. isotype control (in words) (3C9-D11-H11 tumor model; 3C9-D11-H11, 10 mg/kg q3d i.p. from d8, 2 way ANOVA): not the case | Mean tumor size (3C9-D11-H11 tumor model; day 7 post inoculation, 10 mg/kg i.p. q3d×5 starting d8): 63.28 mm3 | Mean tumor size (3C9-D11-H11 tumor model; day 10 post inoculation, 10 mg/kg i.p. q3d×5 starting d8): 67.18 mm3 | Mean tumor size (3C9-D11-H11 tumor model; day 14 post inoculation, 10 mg/kg i.p. q3d×5 starting d8): 198.87 mm3 | Mean tumor size (3C9-D11-H11 tumor model; day 16 post inoculation, 10 mg/kg i.p. q3d×5 starting d8): 314.06 mm3 | Mean tumor size (3C9-D11-H11 tumor model; day 18 post inoculation, 10 mg/kg i.p. q3d×5 starting d8): 574.54 mm3 | Mean tumor size (3C9-D11-H11 tumor model; day 21 post inoculation, 10 mg/kg i.p. q3d×5 starting d8): 1377.9 mm3 | tumor size of the treatment group vs. Control (T/C) (B16F10 OVA tumor model; B16F10 OVA, BAY 1905254 10 mg/kg i.p. q3d×3, OVA + CPG s.c. once): 0.66 | tumor growth vs. isotype control (in words) (B16F10 OVA tumor model; B16F10 OVA, BAY1905254 10 mg/kg q3d i.p., OVA and CPG, 2 way ANOVA): moderate delay of tumor growth | Mean tumor size (B16F10 OVA tumor model; day 9 post inoculation): 66.09 mm3 | Mean tumor size (B16F10 OVA tumor model; day 11 post inoculation): 137.52 mm3 | Mean tumor size (B16F10 OVA tumor model; day 14 post inoculation): 314.75 mm3 | Mean tumor size (B16F10 OVA tumor model; day 16 post inoculation): 483.38 mm3 | Mean tumor size (B16F10 OVA tumor model; day 18 post inoculation): 711.93 mm3 | tumor size of the treatment group vs. Control (T/C) (CT26 C4.4a tumor model; CT26 C4.4a, BAY 1905254 10 mg/kg i.p. q3d×5, C4.4A ADC 10 mg/kg i.v. q4d×3): 1.13 | tumor growth vs. isotype control (in words) (CT26 C4.4a tumor model; FIG. 8, BAY1905254 10 mg/kg i.p., C4.4A ADC 10 mg/kg i.v., from d6, 2 way ANOVA): does not lead to a delay in tumor growth | Mean tumor size (CT26 C4.4a tumor model; day 6 post inoculation): 56.89 mm3 | Mean tumor size (CT26 C4.4a tumor model; day 10 post inoculation): 141.28 mm3 | Mean tumor size (CT26 C4.4a tumor model; day 12 post inoculation): 220.99 mm3 | Mean tumor size (CT26 C4.4a tumor model; day 14 post inoculation): 260.95 mm3 | Mean tumor size (CT26 C4.4a tumor model; day 17 post inoculation): 566.58 mm3 | Mean tumor size (CT26 C4.4a tumor model; day 19 post inoculation): 706.01 mm3 | tumor shrinkage measured against an isotype control (in words) [2]: do | anti-tumor activity in an in vivo tumor model compared with anti PD-L1 antibody (in words) [3]: comparable to that of an anti PD-L1 antibody | tumor size of the treatment group vs. Control (T/C) (B16-F10 OVA tumor model; B16-F10 OVA, BAY 1905254 10 mg/kg i.p. q3d×3, Docetaxel once 20 mg/kg i.v.): 0.86 | tumor growth vs. isotype control (in words) (B16-F10 OVA tumor model; B16F10 OVA, BAY1905254 10 mg/kg q3d i.p., Docetaxel 20 mg/kg i.v. once, 2 way ANOVA): moderate delay of tumor growth | Mean tumor size (B16-F10 OVA tumor model; day 8 post inoculation): 86.26 mm3 | Mean tumor size (B16-F10 OVA tumor model; day 11 post inoculation): 97.06 mm3 | Mean tumor size (B16-F10 OVA tumor model; day 14 post inoculation): 207.75 mm3 | Mean tumor size (B16-F10 OVA tumor model; day 16 post inoculation): 382.66 mm3
